According to patent US20240382561A1, “GLUCOREGULATORY COMPOUND, COMPOSITION AND USES THEREOF” (THE HONG KONG POLYTECHNIC UNIVERSITY, priority 2021, published 2024):

Tests used:
[1] = tested on: mouse primary adipocytes; assay: 2-NBDG glucose uptake in mouse primary adipocytes; type: cell-based; conditions: inhibitor 1 μM; for effect of co-treatment on CYSTM1-induced glucose uptake: primary adipocytes, CYSTM1 1 μM
Experimental: (§1) To determine whether CYSTM1 can increase glucose uptake in adipocytes, in vitro assays of 2-NBDG uptake in response to CYSTM1 treatment and potential inhibitors in 3T3-L1 adipocytes and mouse primary adipocytes were performed. 3T3-L1 preadipocytes were maintained in Dulbecco's modified Eagle's medium (DMEM) supplemented with 10% fetal bovine serum. Two days after confluence, 3T3-L1 cells were induced to differentiation using the standard adipogenic cocktail (0.5 mM IBMX, 1 μM dexamethasone and 10 μg/ml insulin) that was applied for 4 days and followed by 10 μg/ml insulin treatment for additional 4 days. The culture medium was changed every other day. The differentiated cells were maintained in normal serum containing DMEM. Mouse primary adipocytes were isolated from 10 to 12-week-old male C57BL/6J mice using a collagenase digestion protocol as described, briefly, white fat pads were removed, minced and digested using collagenase for 60-90 min at 37° C. in Krebs-Ringers phosphate HEPES buffer (KRPH) (15 mM HEPES, pH 7.4, 118 mM NaCl, 4.8 mM KCl, 1.2 mM MgSO4, 1.3 mM CaCl2, 1.2 mM KHPO3, 0.1% BSA). The stromal vascular fraction was separated from the adipocytes and cultured using DMEM and differentiated the same as 3T3-L1 adipocytes as described above. For glucose uptake, differentiated 3T3-L1 adipocytes and primary adipocytes are plated at 10,000 cells/well in 96-well plates and fasted overnight with low glucose serum-free medium (DMEM with 0.25% BSA) DMEM and 2-NBDG (Cayman Chemical) was performed as follow: briefly, 3T3-L1 cells were washed twice with warm (37° C.) KRPH buffer, and adipocytes were either untreated or treated with different concentration of CYSTM1 (1 nM, 10 nM, 100 nM and 1000 nM) for 1 h in KRPH buffer containing 400 nM of 2-NBDG. NBDG uptake was measured using a fluorescent microplate reader (Thermo Scientific Varioskan LUX Multimode Microplate Reader).

[2] = tested on: 3T3-L1 adipocytes; assay: 2-NBDG glucose uptake in 3T3-L1 adipocytes; type: cell-based; conditions: inhibitor 1 μM; for effect of co-treatment on CYSTM1-induced glucose uptake: 3T3-L1 cells, CYSTM1 1 μM
Experimental: as §1

[3] = tested on: MIN6 pancreatic beta cell; assay: Insulin secretion in MIN6 cells with GLP-1R antagonist exendin (9-39); type: cell-based, mouse; conditions: exendin (9-39) 10 nM

Cc1cccc([C@@H](CO)NC(=O)[C@@H](C)N2Cc3ccc(-c4nc(NC5CCOCC5)ncc4Cl)cc3C2=O)c1 [ERK1/2 inhibitor 1]
effect of co-treatment on CYSTM1-induced glucose uptake [1]: blocked | effect of co-treatment on CYSTM1-induced glucose uptake [2]: blocked

CCn1c(-c2nonc2N)nc2c(C#CC(C)(C)O)ncc(OC[C@H]3CCCNC3)c21 [GSK690693]
inhibition of CYSTM1-induced increase in glucose uptake ([1]; mouse primary adipocytes, 5 μM, 10 μM, CYSTM1 1 μM (FIG. 8D)): inhibited by the dose-dependent manner | effect of co-treatment on CYSTM1-induced glucose uptake [1]: blocked | inhibition of CYSTM1-induced increase in glucose uptake ([2]; 3T3-L1 adipocytes, 5 μM, 10 μM, CYSTM1 1 μM (FIG. 8B)): inhibited by the dose-dependent manner | effect of co-treatment on CYSTM1-induced glucose uptake [2]: blocked

exendin (9-39)
inhibition of CYSTM1 activity (insulin secretion) by the antagonist ([3]; CYSTM1 10 nM): did not inhibit CYSTM1 activity | inhibition of glucose-induced insulin secretion of GLP-1 by the antagonist ([3]; GLP-1 10 nM): inhibited

glucagon-like peptide 1 [GLP-1]
glucose-induced insulin secretion of GLP-1 in presence of exendin (9-39) ([3]; GLP-1 10 nM): inhibited by exendin (9-39)
